Where a SMILES comes first, the peptide text is derived from it. Bridges are numbered along the chain shown (N, C = ends). [ ]: non-standard residue; d: D form. The star is where a group is joined. hPhe(3-Cl-4-CF3) = N[C@@H](CCc1ccc(C(F)(F)F)c(Cl)c1)C(=O)O; NPrPhe(4-CF3) = CCCN[C@@H](Cc1ccc(C(F)(F)F)cc1)C(=O)O; NEtPhe(4-CF3) = CCN[C@@H](Cc1ccc(C(F)(F)F)cc1)C(=O)O; NMeGly(cPent) = CN[C@H](C(=O)O)C1CCCC1; NMeD = CN[C@@H](CC(=O)O)C(=O)O; NMeL = CN[C@@H](CC(C)C)C(=O)O; Pip = O=C(O)[C@@H]1CCCCN1; Morpholide = C1CN(*)CCO1; Ac5c = NC1(C(=O)O)CCCC1; Aze = O=C(O)[C@@H]1CCN1; Ac3c = NC1(C(=O)O)CC1; Sar = CNCC(=O)O
Tests used:
[1] = target: GDP-bound KRAS wild-type protein (Homo sapiens, UniProt P01116); test: Binding to KRAS by surface plasmon resonance (SPR), dissociation constant KD
Method in brief: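 Affinity is measured by surface plasmon resonance at 30°C against captured, GDP-loaded RAS carrying a biotinylated Avi tag. Compounds are titrated by single-cycle kinetics, and KD comes from a 1:1 fit.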

[2] = target: GDP-bound NRAS wild-type protein (Homo sapiens, UniProt P01111); test: Binding to NRAS by surface plasmon resonance (SPR), KD and KD ratio to KRAS
Method in brief: (§1)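 Recombinant RAS proteins bearing a biotinylated Avi tag and loaded with GDP served as the captured ligand, recaptured fresh every cycle. Binding responses were referenced to an uncoated surface and a buffer-only blank cycle. Dissociation constants were obtained by 1:1 model fitting at 30°C.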

[3] = target: HRAS wild-type protein (Homo sapiens, UniProt P01112); test: Binding to HRAS by surface plasmon resonance (SPR), KD and KD ratio to KRAS
Method in brief: as §1

[4] = system: human lung cancer strain NCI-H441; assay type: cell-based
Method in brief: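 Signal came from […] measured per well once the reagent was added. Beforehand, cells were cultured at 37°C and 5% carbon dioxide on a compound series serially diluted in dimethyl sulfoxide.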

[5] = Single Cycle Kinetics, 1:1 binding model
[6] = ratio of the KD value with respect to GDP-bound NRAS wild-type protein to the KD value with respect to KRAS
[7] = ratio of the KD value with respect to HRAS wild-type protein to the KD value with respect to KRAS
[8] = ratio of KD for GDP-bound NRAS wild-type protein to KD for KRAS
[9] = ratio of KD for HRAS wild-type protein to KD for KRAS
[10] = ratio of KD value for GDP-bound NRAS wild-type protein to KD value for KRAS (SPR)
[11] = ratio of KD value for HRAS wild-type protein to KD value for KRAS (SPR)

HRAS wild-type protein, sequence (P01112 whole entry): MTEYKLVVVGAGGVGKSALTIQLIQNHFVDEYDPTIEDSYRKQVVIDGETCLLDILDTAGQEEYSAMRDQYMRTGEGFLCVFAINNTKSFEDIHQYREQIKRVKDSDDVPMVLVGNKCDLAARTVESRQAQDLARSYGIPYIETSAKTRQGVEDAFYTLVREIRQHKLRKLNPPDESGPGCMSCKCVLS
GDP-bound KRAS wild-type protein, sequence (P01116 1-188 isoform P01116-2): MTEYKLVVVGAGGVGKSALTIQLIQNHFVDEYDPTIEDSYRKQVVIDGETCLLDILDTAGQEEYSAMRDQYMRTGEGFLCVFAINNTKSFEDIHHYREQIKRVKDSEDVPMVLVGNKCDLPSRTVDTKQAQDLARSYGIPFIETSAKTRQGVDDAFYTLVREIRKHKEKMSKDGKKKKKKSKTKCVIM
GDP-bound NRAS wild-type protein, sequence (P01111 whole entry): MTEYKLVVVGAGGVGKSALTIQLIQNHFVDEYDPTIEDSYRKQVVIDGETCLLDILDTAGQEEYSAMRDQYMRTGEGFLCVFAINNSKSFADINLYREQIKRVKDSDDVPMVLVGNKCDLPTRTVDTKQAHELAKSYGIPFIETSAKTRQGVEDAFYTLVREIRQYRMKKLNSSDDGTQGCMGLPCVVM

Row | SMILES | Kd [1, 5] | IC50 [4] | NRAS /KRAS [2, 8] | HRAS /KRAS [3, 9] | NRAS /KRAS [2, 10] | HRAS /KRAS [3, 11] | further results
1 | CCCOC[C@H]1C(=O)N[C@@H]([C@@H](C)CC)C(=O)N(C)CC(=O)N(C)[C@H]2C/C=C\CCN(C2=O)[C@@H](Cc2ccc(C)cc2)C(=O)N(C)CC(=O)N[C@@H](CCc2ccc(C(F)(F)F)c(OC)c2)C(=O)N2C[C@H](OCC)C[C@H]2C(=O)N(C)C2(CCC2)C(=O)N(C)[C@@H](C2CCCC2)C(=O)N(C)[C@H](C(=O)N(C)C)CC(=O)N1C [PP2326] | 0.031 nM | 1.6 nM | – | – | – | – | NRAS /KRAS [2, 6]: A (a compound having 10 or more and less than 20 is denoted as A); HRAS /KRAS [3, 7]: B (a compound having 3 or more and less than 10 is denoted as B)
2 | CCCN1C(=O)[C@@H]2CCN2C(=O)[C@@H]2CCCCN2C(=O)[C@H]([C@@H](C)CC)NC(=O)[C@H](CC(C)C)N(C)C(=O)C[C@@H](C(=O)N2CCOCC2)N(C)C(=O)[C@H](C2CCCC2)N(C)C(=O)C2(CCCC2)NC(=O)[C@@H]2CCCN2C(=O)[C@H](CCc2ccc(C(F)(F)F)c(Cl)c2)NC(=O)CN(C)C(=O)[C@@H]1Cc1ccc(C(F)(F)F)cc1 [PP0077] ([NMeL]I[Pip][Aze][NPrPhe(4-CF3)][Sar][hPhe(3-Cl-4-CF3)]P[Ac5c][NMeGly(cPent)][NMeD]-Morpholide; lactam N-11) | – | 5.3 nM | C (A compound having a KD ratio of 0.1 or more and less than 3 is denoted as C) | B (a compound having 3 or more and less than 10 is denoted as B) | – | – | Kd ([1]; 1:1 binding model): 0.2 nM
3 | CC[C@H](C)[C@@H]1NC(=O)[C@H](CC2CC2)N(C)C(=O)C[C@@H](C(=O)N2CCCC2)N(C)C(=O)[C@H](C2CCCC2)N(C)C(=O)C2(CCCC2)NC(=O)[C@@H]2C[C@@H](C(F)(F)F)CN2C(=O)[C@H](CCc2cc(F)c(C(F)(F)F)c(F)c2)NC(=O)CN(C)C(=O)[C@H](Cc2ccc(F)cc2)N2CC/C=C\C[C@@H](C2=O)N(C)C(=O)CN(C)C1=O [PP1509] | 0.4 nM | 67.9 nM | – | – | A (a compound having 10 or more and less than 20 is denoted as A) | A (a compound having 10 or more and less than 20 is denoted as A) | –
4 | CCO[C@@H]1C[C@H]2C(=O)NC3(CC(C)(C)C3)C(=O)N(C)[C@@H](C3CCCC3)C(=O)N(C)[C@H](C(=O)N(C)C)CC(=O)N(C)[C@@H]([C@H](C)OC)C(=O)N[C@@H]([C@@H](C)CC)C(=O)N(C)CC(=O)N(C)[C@H]3C/C=C\CCN(C3=O)[C@@H](Cc3ccc(C)cc3)C(=O)N(C)CC(=O)N[C@@H](CCc3ccc(C(F)(F)F)c(Cl)c3)C(=O)N2C1 [PP3189] | – | 18.5 nM | A (a compound having 10 or more and less than 20 is denoted as A) | A (a compound having 10 or more and less than 20 is denoted as A) | – | – | Kd ([1]; 1:1 binding model): 0.12 nM
5 | CC[C@H](C)[C@@H]1NC(=O)[C@H](CC(C)C)N(C)C(=O)C[C@@H](C(=O)N2CCOCC2)N(C)C(=O)[C@H](C2CCCC2)N(C)C(=O)C2(CC2)NC(=O)[C@@H]2CCCN2C(=O)[C@H](CCc2ccc(C(F)(F)F)c(Cl)c2)NC(=O)CN(C)C(=O)[C@H](Cc2ccc(C(F)(F)F)cc2)N(CC)C(=O)CN(C)C(=O)CN(C)C1=O [PP0234] ([NMeL]I[Sar][Sar][NEtPhe(4-CF3)][Sar][hPhe(3-Cl-4-CF3)]P[Ac3c][NMeGly(cPent)][NMeD]-Morpholide; lactam N-11) | – | 49.9 nM | B (a compound having 3 or more and less than 10 is denoted as B) | C (A compound having a KD ratio of 0.1 or more and less than 3 is denoted as C) | – | – | Kd ([1]; 1:1 binding model): 0.49 nM
6 | CC[C@H](C)[C@@H]1NC(=O)[C@H](CC2CC2)N(C)C(=O)C[C@@H](C(=O)N(C)C)N(C)C(=O)[C@H](C2CCCC2)N(C)C(=O)C2(CCC2)NC(=O)[C@@H]2C[C@H](C)CN2C(=O)[C@H](CCc2ccc(C(F)(F)F)c(OC)c2)NC(=O)CN(C)C(=O)[C@H](Cc2ccc(C)cc2)N2CC/C=C\C[C@@H](C2=O)N(C)C(=O)CN(C)C1=O [PP1861] | 0.091 nM | 25.7 nM | – | – | A (a compound having 10 or more and less than 20 is denoted as A) | B (a compound having 3 or more and less than 10 is denoted as B) | –
7 | CCO[C@@H]1C[C@H]2C(=O)NC3(CCC3)C(=O)N(C)[C@@H](C(CC)CC)C(=O)N(C)[C@H](C)CC(=O)N(C)[C@@H](CC(C)C)C(=O)N[C@@H]([C@@H](C)CC)C(=O)N(C)CC(=O)N(C)[C@H]3C/C=C\CCN(C3=O)[C@@H](Cc3ccc(F)cc3C)C(=O)N(C)CC(=O)N[C@@H](CCc3cc(F)c(C(F)(F)F)c(F)c3)C(=O)N2C1 [PP1524] | 5.7 nM | 439 nM | – | – | B (a compound having 3 or more and less than 10 is denoted as B) | B (a compound having 3 or more and less than 10 is denoted as B) | –
8 | CC[C@H](C)[C@@H]1NC(=O)[C@H](CC(C)C)N(C)C(=O)C[C@@H](C(=O)N2C[C@@H](C)O[C@@H](C)C2)N(C)C(=O)[C@H](C2CCCC2)N(C)C(=O)C2(CCCC2)NC(=O)[C@@H]2CCCN2C(=O)[C@H](CCc2ccc(C(F)(F)F)c(Cl)c2)NC(=O)CN(C)C(=O)[C@H](Cc2ccc(F)cc2)N2CCCCC[C@@H](C2=O)N(C)C(=O)CN(C)C1=O [PP1151] | 0.64 nM | 97.1 nM | – | – | – | – | NRAS /KRAS ([2]; ratio of KD with respect to GDP-bound NRAS wild-type protein to KD with respect to KRAS): B (a compound having 3 or more and less than 10 is denoted as B); HRAS /KRAS ([3]; ratio of KD with respect to HRAS wild-type protein to KD with respect to KRAS): B (a compound having 3 or more and less than 10 is denoted as B)
9 | CC[C@H](C)[C@@H]1NC(=O)[C@H](CC(C)C)N(C)C(=O)C[C@@H](C(=O)N(C)C)N(C)C(=O)[C@H](C2CCCC2)N(C)C(=O)C2(CCCC2)NC(=O)[C@@H]2CCCN2C(=O)[C@H](CCc2ccc(C(F)(F)F)c(Cl)c2)NC(=O)CN(C)C(=O)[C@H](Cc2ccc(F)cc2)N2CCCCC[C@@H](C2=O)N(C)C(=O)CN(C)C1=O [PP0971] | – | 54 nM | B (a compound having 3 or more and less than 10 is denoted as B) | B (a compound having 3 or more and less than 10 is denoted as B) | – | – | Kd ([1]; Single Cycle Kinetics): 0.34 nM
10 | CC[C@H](C)[C@@H]1NC(=O)[C@H](C2CC2)N(C)C(=O)C[C@@H](C(=O)N(C)C)N(C)C(=O)[C@H](C2CCCC2)N(C)C(=O)C2(CCC2)N(C)C(=O)[C@@H]2C[C@@H](C)CN2C(=O)[C@H](CCc2cc(F)c(C(F)(F)F)c(F)c2)NC(=O)CN(C)C(=O)[C@H](Cc2ccc(C)cc2)N2CC/C=C\C[C@@H](C2=O)N(C)C(=O)CN(C)C1=O [PP1788] | 0.063 nM | 6.2 nM | – | – | B (a compound having 3 or more and less than 10 is denoted as B) | B (a compound having 3 or more and less than 10 is denoted as B) | –
11 | CC[C@H](C)[C@@H]1NC(=O)[C@H](CC2CC2)N(C)C(=O)C[C@@H](C(=O)N(C)CC)N(C)C(=O)[C@H](C2CCCC2)N(C)C(=O)C2(CC(C)(C)C2)NC(=O)[C@@H]2C[C@H](C)CN2C(=O)[C@H](CCc2ccc(C(F)(F)F)c(OC)c2)NC(=O)CN(C)C(=O)[C@H](Cc2ccc(C)cc2)N2CC/C=C\C[C@@H](C2=O)N(C)C(=O)CN(C)C1=O [PP1899] | 0.12 nM | 15.1 nM | – | – | – | – | NRAS /KRAS [2, 6]: A (a compound having 10 or more and less than 20 is denoted as A); HRAS /KRAS [3, 7]: B (a compound having 3 or more and less than 10 is denoted as B)

Reference: EP4603105A1, “PHARMACEUTICAL COMPOSITION CONTAINING CYCLIC COMPOUND HAVING SELECTIVE KRAS INHIBITORY EFFECT AGAINST HRAS AND NRAS” (CHUGAI SEIYAKU KABUSHIKI KAISHA, priority 2022, dated 2024)
